Measured values from ChEMBL document CHEMBL3992552, “Mechanisms of action and structure-activity relationships of cytotoxic flavokawain derivatives” (Bioorg Med Chem, 2017).
Calls of active or inactive are those of the source. The calls are words filed in the database; no cut-off is given here.

Tests used:
[1] = system: Huh-7; test: Cytotoxicity against human HuH7 cells assessed as cell viability after 48 hrs by Hoechst 33342 staining based assay; assay type: functional; details: Huh-7, 48 h
[2] = system: MDA-MB-231; test: Cytotoxicity against human MDA-MB-231 cells assessed as cell viability after 48 hrs by Hoechst 33342 staining based assay; assay type: functional; details: MDA-MB-231, 48 h
[3] = system: PC-3; test: Cytotoxicity against human PC3 cells assessed as cell viability after 48 hrs by Hoechst 33342 staining based assay; assay type: functional; details: PC-3, 48 h
[4] = system: NCI-H727; test: Cytotoxicity against human NCI-H727 cells assessed as cell viability after 48 hrs by Hoechst 33342 staining based assay; assay type: functional; details: NCI-H727, 48 h
[5] = system: HaCaT; test: Cytotoxicity against human HaCaT cells assessed as cell viability after 48 hrs by Hoechst 33342 staining based assay; assay type: functional
[6] = system: Fibroblast; test: Cytotoxicity against human fibroblasts assessed as cell viability after 48 hrs by Hoechst 33342 staining based assay
[7] = system: RL; test: Cytotoxicity against human RL assessed as cell viability after 48 hrs by Hoechst 33342 staining based assay; assay type: functional
[8] = system: MCF7; test: Cytotoxicity against human MCF7 assessed as cell viability after 48 hrs by Hoechst 33342 staining based assay; assay type: functional; details: MCF7, 48 h
[9] = system: Huh-7; test: Cell cycle arrest in human HuH7 cells assessed as accumulation at S phase at 10 uM measured after 48 hrs by Hoechst/BrdU staining based fluorescence assay (reference value: 44%); assay type: functional
[10] = system: MDA-MB-231; test: Cell cycle arrest in human MDA-MB-231 cells harboring p53 mutant assessed as accumulation at S phase at 10 uM measured after 48 hrs by Hoechst/BrdU staining based fluorescence assay (reference value: 42.2%); assay type: functional
[11] = system: HCT-116; test: Cell cycle arrest in human HCT116 cells harboring wild-type p53 assessed as accumulation at S phase at 10 uM measured after 48 hrs by Hoechst/BrdU staining based fluorescence assay (reference value: 68.4%); assay type: functional
[12] = system: PC-3; test: Cell cycle arrest in human PC3 cells harboring p53 mutant assessed as accumulation at S phase at 10 uM measured after 48 hrs by Hoechst/BrdU staining based fluorescence assay (reference value: 40.8%); assay type: functional
[13] = system: NCI-H727; test: Cell cycle arrest in human NCI-H727 cells harboring p53 mutant assessed as mitotic index at 10 uM measured after 48 hrs by Hoechst staining based fluorescence assay (reference value: 1.1); assay type: functional
[14] = system: NCI-H727; test: Cell cycle arrest in human NCI-H727 cells harboring p53 mutant assessed as accumulation at S phase at 10 uM measured after 48 hrs by Hoechst/BrdU staining based fluorescence assay (reference value: 40.3%); assay type: functional
[15] = system: HaCaT; test: Cell cycle arrest in human HaCaT cells harboring […] p53 assessed as accumulation at S phase at 10 uM measured after 48 hrs by Hoechst/BrdU staining based fluorescence assay (reference value: 52.3%); assay type: functional
[16] = system: Huh-7; test: Cell cycle arrest in human HuH7 cells assessed as accumulation at S phase at 25 uM measured after 48 hrs by Hoechst/BrdU staining based fluorescence assay (reference value: 44%); assay type: functional
[17] = system: MDA-MB-231; test: Cell cycle arrest in human MDA-MB-231 cells harboring p53 mutant assessed as accumulation at S phase at 25 uM measured after 48 hrs by Hoechst/BrdU staining based fluorescence assay (reference value: 42.2%); assay type: functional
[18] = system: HCT-116; test: Cell cycle arrest in human HCT116 cells harboring wild-type p53 assessed as accumulation at S phase at 25 uM measured after 48 hrs by Hoechst/BrdU staining based fluorescence assay (reference value: 68.4%); assay type: functional
[19] = system: PC-3; test: Cell cycle arrest in human PC3 cells harboring p53 mutant assessed as accumulation at S phase at 25 uM measured after 48 hrs by Hoechst/BrdU staining based fluorescence assay (reference value: 40.8%); assay type: functional
[20] = system: NCI-H727; test: Cell cycle arrest in human NCI-H727 cells harboring p53 mutant assessed as mitotic index at 25 uM measured after 48 hrs by Hoechst staining based fluorescence assay (reference value: 1.1); assay type: functional
[21] = system: NCI-H727; test: Cell cycle arrest in human NCI-H727 cells harboring p53 mutant assessed as accumulation at S phase at 25 uM measured after 48 hrs by Hoechst/BrdU staining based fluorescence assay (reference value: 40.3%); assay type: functional
[22] = system: HaCaT; test: Cell cycle arrest in human HaCaT cells harboring […] p53 assessed as accumulation at S phase at 25 uM measured after 48 hrs by Hoechst/BrdU staining based fluorescence assay (reference value: 52.3%); assay type: functional
[23] = system: HCT-116; test: Cell cycle arrest in human HCT116 cells harboring wild-type p53 assessed as accumulation at M phase at 25 uM measured after 48 hrs by Hoechst staining based fluorescence assay (reference value: 2.3 to […]); assay type: functional
[24] = system: HCT-116; test: Cell cycle arrest in human HCT116 cells harboring wild-type p53 assessed as accumulation at M phase at 50 uM measured after 48 hrs by Hoechst staining based fluorescence assay (reference value: 2.3 to […]); assay type: functional
[25] = system: HCT-116; test: Cell cycle arrest in human HCT116 cells harboring wild-type p53 assessed as accumulation at S phase at 50 uM measured after 48 hrs by Hoechst/BrdU staining based fluorescence assay (reference value: 68%); assay type: functional
[26] = system: Huh-7; test: Cell cycle arrest in human HuH7 cells assessed as accumulation at G1/S phase by Hoechst staining based fluorescence assay; assay type: functional
[27] = system: MDA-MB-231; test: Cell cycle arrest in human MDA-MB-231 cells assessed as accumulation at G1/S phase by Hoechst staining based fluorescence assay; assay type: functional
[28] = system: HCT-116; test: Cell cycle arrest in human HCT116 cells assessed as accumulation at G1/S phase by Hoechst staining based fluorescence assay; assay type: functional
[29] = system: HaCaT; test: Cell cycle arrest in human HaCaT cells assessed as accumulation at G1/S phase by Hoechst staining based fluorescence assay; assay type: functional
[30] = system: PC-3; test: Cell cycle arrest in human PC3 cells assessed as accumulation at G2/M phase by Hoechst staining based fluorescence assay; assay type: functional
[31] = system: HCT-116; test: Cell cycle arrest in human HCT116 cells harboring wild-type p53 assessed as accumulation at S phase at 25 uM measured after 48 hrs by Hoechst/BrdU staining based fluorescence assay (reference value: 68%); assay type: functional
[32] = system: Caco-2; test: Cytotoxicity against human Caco2 cells assessed as cell viability after 48 hrs by Hoechst 33342 staining based assay; assay type: functional; details: Caco-2, 48 h
[33] = system: HCT-116; test: Cytotoxicity against human HCT116 cells assessed as cell viability after 48 hrs by Hoechst 33342 staining based assay; assay type: functional; details: HCT-116, 48 h
[34] = Selectivity index, ratio of IC50 for human fibroblasts to IC50 for human Caco2 cells
[35] = Selectivity index, ratio of IC50 for human fibroblasts to IC50 for human HCT116 cells
[36] = Selectivity index, ratio of IC50 for human fibroblasts to IC50 for human PC3 cells
[37] = Selectivity index, ratio of IC50 for human fibroblasts to IC50 for human HaCaT cells
[38] = Selectivity index, ratio of IC50 for human fibroblasts to IC50 for human RL cells
[39] = Selectivity index, ratio of IC50 for human fibroblasts to IC50 for human MCF7 cells
[40] = system: Huh-7; test: Cell cycle arrest in human HuH7 cells assessed as mitotic index at 10 uM measured after 48 hrs by Hoechst staining based fluorescence assay (reference value: 2.2); assay type: functional
[41] = system: Caco-2; test: Cell cycle arrest in human Caco2 cells assessed as mitotic index at 10 uM measured after 48 hrs by Hoechst staining based fluorescence assay (reference value: 3.6); assay type: functional
[42] = system: Caco-2; test: Cell cycle arrest in human Caco2 cells assessed as accumulation at S phase at 10 uM measured after 48 hrs by Hoechst/BrdU staining based fluorescence assay (reference value: […]); assay type: functional
[43] = system: MDA-MB-231; test: Cell cycle arrest in human MDA-MB-231 cells harboring p53 mutant assessed as mitotic index at 10 uM measured after 48 hrs by Hoechst staining based fluorescence assay (reference value: 2.1); assay type: functional
[44] = system: HCT-116; test: Cell cycle arrest in human HCT116 cells harboring wild-type p53 assessed as mitotic index at 10 uM measured after 48 hrs by Hoechst staining based fluorescence assay (reference value: 2.3); assay type: functional
[45] = system: PC-3; test: Cell cycle arrest in human PC3 cells harboring p53 mutant assessed as mitotic index at 10 uM measured after 48 hrs by Hoechst staining based fluorescence assay (reference value: 2.5); assay type: functional
[46] = system: HaCaT; test: Cell cycle arrest in human HaCaT cells harboring […] p53 assessed as mitotic index at 10 uM measured after 48 hrs by Hoechst staining based fluorescence assay (reference value: 2.6); assay type: functional
[47] = system: Huh-7; test: Cell cycle arrest in human HuH7 cells assessed as mitotic index at 25 uM measured after 48 hrs by Hoechst staining based fluorescence assay (reference value: 2.2); assay type: functional
[48] = system: Caco-2; test: Cell cycle arrest in human Caco2 cells assessed as mitotic index at 25 uM measured after 48 hrs by Hoechst staining based fluorescence assay (reference value: 3.6); assay type: functional
[49] = system: Caco-2; test: Cell cycle arrest in human Caco2 cells assessed as accumulation at S phase at 25 uM measured after 48 hrs by Hoechst/BrdU staining based fluorescence assay (reference value: […]); assay type: functional
[50] = system: MDA-MB-231; test: Cell cycle arrest in human MDA-MB-231 cells harboring p53 mutant assessed as mitotic index at 25 uM measured after 48 hrs by Hoechst staining based fluorescence assay (reference value: 2.1); assay type: functional
[51] = system: HCT-116; test: Cell cycle arrest in human HCT116 cells harboring wild-type p53 assessed as mitotic index at 25 uM measured after 48 hrs by Hoechst staining based fluorescence assay (reference value: 2.3); assay type: functional
[52] = system: PC-3; test: Cell cycle arrest in human PC3 cells harboring p53 mutant assessed as mitotic index at 25 uM measured after 48 hrs by Hoechst staining based fluorescence assay (reference value: 2.5); assay type: functional
[53] = system: HaCaT; test: Cell cycle arrest in human HaCaT cells harboring […] p53 assessed as mitotic index at 25 uM measured after 48 hrs by Hoechst staining based fluorescence assay (reference value: 2.6); assay type: functional
[54] = system: HCT-116; test: Cell cycle arrest in human HCT116 cells assessed as accumulation at G2/M phase by Hoechst staining based fluorescence assay; assay type: functional
[55] = system: PC-3; test: Cell cycle arrest in human PC3 cells assessed as accumulation at G1/S phase by Hoechst staining based fluorescence assay; assay type: functional

Structure (SMILES): CC[C@H](CO)Nc1nc(NCc2ccccc2)c2ncn(C(C)C)c2n1 [SELICICLIB]
- IC50 [1]: 15.4 µM
- IC50 [2]: 16.8 µM
- IC50 [3]: 16.5 µM
- IC50 [4]: > 20 µM
- IC50 [5]: 16.7 µM
- IC50 [6]: > 20 µM
- IC50 [7]: 900 nM
- IC50 [8]: 10.2 µM
- Activity [9]: 16%
- Activity [10]: 27%
- Activity [11]: 25%
- Activity [12]: 17%
- Activity [13]: inactive
- Activity [14]: inactive
- Activity [15]: 26%
- Activity [16]: 9%
- Activity [17]: 25%
- Activity [18]: 17%
- Activity [19]: 38%
- Activity [20]: inactive
- Activity [21]: inactive
- Activity [22]: 3%
- Activity [23]: 1.2%
- Activity [24]: 0.6%
- Activity [25]: 17%
- Activity [26]: Active
- Activity [27]: Active
- Activity [28]: Active
- Activity [29]: Active
- Activity [30]: Active
- Activity [31]: 25%

Structure (SMILES): Oc1cccc(-c2nc(N3CCOCC3)c3oc4ncccc4c3n2)c1 [PI-103]
- IC50 [1]: > 20 µM
- IC50 [32]: 2000 nM
- IC50 [2]: > 20 µM
- IC50 [33]: 3.9 µM
- IC50 [3]: 7.6 µM
- IC50 [4]: > 20 µM
- IC50 [5]: 3.5 µM
- IC50 [6]: > 20 µM
- IC50 [7]: 2900 nM
- IC50 [8]: 13.3 µM
- Ratio IC50 [34]: >12.5
- Ratio IC50 [35]: >6.4
- Ratio IC50 [36]: >3.3
- Ratio IC50 [37]: >7.1
- Ratio IC50 [38]: >8.6
- Ratio IC50 [39]: >1.9
- Activity [40]: inactive
- Activity [9]: inactive
- Activity_index [41]: 1.4
- Activity [42]: 28%
- Activity [43]: inactive
- Activity [10]: inactive
- Activity_index [44]: 1.9
- Activity [11]: 63%
- Activity_index [45]: 0.4
- Activity [12]: 6%
- Activity [13]: inactive
- Activity [14]: inactive
- Activity_index [46]: 0.9
- Activity [15]: 20%
- Activity [47]: inactive
- Activity [16]: inactive
- Activity_index [48]: 0.9
- Activity [49]: 20%
- Activity [50]: inactive
- Activity [17]: inactive
- Activity_index [51]: 1.8
- Activity [18]: 63%
- Activity_index [52]: 0.1
- Activity [19]: 1.2%
- Activity [20]: inactive
- Activity [21]: inactive
- Activity_index [53]: 0.5
- Activity [22]: 12%
- Activity [54]: Active
- Activity [55]: Active
- Activity [29]: Active
